Measurements from patent publication US20180116972A1, “Lipid based nanocarrier compositions loaded with metal nanoparticles and therapeutic agent” (UNIVERSITE DE BORDEAUX, priority 2015, published 2018).
“Also recorded” adds a separate entry of the source.

Legend:
[1] = Stability of a suspension of iron oxide nanoparticles clusters encapsulated by a lipid (DOPC) versus a nucleolipid (DOTAU); conditions: Milli-Q water, sonicated 3×15 minutes
Procedure: 75 μL of stock solution of (DOPC) (Avanti Polar ipids, 50 mg/mL in chloroform) and 20 μL of stock solution of iron oxide nanoparticles (10 mg/mL in chloroform) were mixed. The organic phase was added dropwise into the aqueous phase (2 ml of Milli-Q Water) placed in glass tube under stirring by vortex. Then the mixture was placed in a glass flask. Chloroform was removed under vacuum and the resulting crude material solution was sonicated 3 times (3×15 minutes) to give a precipitate.
The same protocol was followed, except that the nucleolipid N-[5′-(2′,3′-dioleoyl)uridine]-N′,N′,N′-trimethylammonium (DOTAU) was used instead of DOPC.

[2] = system: Platelet rich plasma (PRP); experiment: In vitro platelet aggregation (light transmission aggregometer); type: cell-based, healthy volunteers; conditions: 37° C.
Procedure: Blood was obtained in 1/10th volume of 3.8% sodium citrate from healthy volunteers who had not taken any drugs known to affect platelet function for 2 weeks prior to the study. Platelet rich plasma (PRP) was prepared by centrifugation at 20° C. for 10-15 min at 150-200 g and stored at room temperature.
Platelet-poor plasma (PPP) was prepared by further centrifugation of the remaining plasma at 2700 g for 15 min and was used to calibrate the 100% light transmission of the aggregometer.
The percentage of aggregation was followed versus time. PRP (207 μL) was stirred in cuvette at 37° C. and agonists adenosine 5′-diphosphate (ADP) or thrombin receptor-activating peptide -6 (TRAP-6) were added at 5 s to promote platelet aggregation, and was incubated either with the DOU-PEG2000-based nanocarrier composition containing iron oxide nanoparticles and prostacyclin (PGI2) of example 2, or with the iron oxide nanoparticles clusters encapsulated by diC16dT of preparation 2 (used as negative control) or with the agonist(s) only (negative control) or with the agonist(s) and PGI2 (positive control) for 15 min and 3 h for evaluating PGI2 activity. The in vitro platelet aggregation was determined using a four-channel light transmission aggregometer (APACT 4004, ELITech, France).
The results are shown on FIG. 12, where the curves numbered 1 to 7 represent the following experimental conditions: […]

[3] = Size distribution measured by Dynamic Light Scattering (DLS); type: physicochemical

## CCCCCCCC/C=C\CCCCCCCC(=O)O[C@@H]1[C@H](OC(=O)CCCCCCC/C=C\CCCCCCCC)[C@@H](C[N+](C)(C)C)O[C@H]1n1ccc(=O)[nH]c1=O [DOTAU, N-[5′-(2′,3′-dioleoyl)uridine]-N′,N′,N′-trimethylammonium]
[1]
  colloidal stability of the iron oxide nanoparticle suspension after sonication: did not give a precipitate; also recorded: stable colloïdal suspension

## CCCCC[C@H](O)/C=C/[C@@H]1[C@H]2C/C(=C/CCCC(=O)O)O[C@H]2C[C@H]1O [PGI2, prostacyclin]
[2]; agonist ADP, 15 min incubation
  platelet aggregation induced by ADP: totally inhibit
[2]; agonist TRAP-6, 3 h incubation
  platelet aggregation induced by TRAP-6: totally inhibit

## APOA1: Apolipoprotein-A1 (Sigma Aldrich)
[3]
  size distribution by number measured by DLS (d): 5.01 nm
